Reference: the supplement of paper PMC8882468

Each compound was assayed on HCI-002 (organoid from a triple-negative breast cancer xenograft) (assay: CTG-3D luminescence at 96 h relative to day-0 seeding control (ratio to day 0); higher = more growth / less cytotoxicity; PDxO 3D drug screen, 96 h, CTG-3D normalised to day-0 seeding control.). Conditions: 12.5 pM; days in culture: 62.

Compound	CTG-3D luminescence at 96 h
C[C@@H]1COCCN1c1cc(C2([S@](C)(=N)=O)CC2)nc(-c2cc[nH]c3nccc2-3)n1 [ceralasertib]	2.73
CCN1CCN(Cc2ccc(Nc3ncc(F)c(-c4cc(F)c5nc(C)n(C(C)C)c5c4)n3)nc2)CC1 [abemaciclib]	2.66
NC1(C(=O)N[C@@H](CCO)c2ccc(Cl)cc2)CCN(c2nc[nH]c3nccc2-3)CC1 [capivasertib]	2.82
CC(C)n1nc(-c2ccc3oc(N)nc3c2)c2c(N)ncnc21 [sapanisertib]	2.83
O=C(c1ccc(F)c(F)c1Nc1ccc(I)cc1F)N1CC(O)([C@@H]2CCCCN2)C1 [cobimetinib]	2.96
C[C@H](NC(=O)CCC(F)(F)F)C(=O)N[C@@H]1C(=O)N(CCO)c2ncccc2-c2ccccc21 [crenigacestat]	2.87
Cc1cc(Nc2ncc(Cl)c(Nc3ccccc3S(=O)(=O)C(C)C)n2)c(OC(C)C)cc1C1CCNCC1 [ceritinib]	2.84
CS(=O)(=O)c1ccc(C(=O)Nc2ccc(Cl)c(-c3ccccn3)c2)c(Cl)c1 [vismodegib]	2.81
NC(=O)c1cccc2cn(-c3ccc([C@@H]4CCCNC4)cc3)nc12 [niraparib]	3.51

Same assay, conditions: 12.5 pM; days in culture: 82

Compound	CTG-3D luminescence at 96 h
C[C@@H]1COCCN1c1cc(C2([S@](C)(=N)=O)CC2)nc(-c2cc[nH]c3nccc2-3)n1 [ceralasertib]	2.71
CCN1CCN(Cc2ccc(Nc3ncc(F)c(-c4cc(F)c5nc(C)n(C(C)C)c5c4)n3)nc2)CC1 [abemaciclib]	3.15
NC1(C(=O)N[C@@H](CCO)c2ccc(Cl)cc2)CCN(c2nc[nH]c3nccc2-3)CC1 [capivasertib]	2.73
CC(C)n1nc(-c2ccc3oc(N)nc3c2)c2c(N)ncnc21 [sapanisertib]	3.4
O=C(c1ccc(F)c(F)c1Nc1ccc(I)cc1F)N1CC(O)([C@@H]2CCCCN2)C1 [cobimetinib]	3.18
C[C@H](NC(=O)CCC(F)(F)F)C(=O)N[C@@H]1C(=O)N(CCO)c2ncccc2-c2ccccc21 [crenigacestat]	3.27
Cc1cc(Nc2ncc(Cl)c(Nc3ccccc3S(=O)(=O)C(C)C)n2)c(OC(C)C)cc1C1CCNCC1 [ceritinib]	3.23
CS(=O)(=O)c1ccc(C(=O)Nc2ccc(Cl)c(-c3ccccn3)c2)c(Cl)c1 [vismodegib]	3.27
NC(=O)c1cccc2cn(-c3ccc([C@@H]4CCCNC4)cc3)nc12 [niraparib]	3.5

Same assay, conditions: 12.5 pM; days in culture: 91

Compound	CTG-3D luminescence at 96 h
C[C@@H]1COCCN1c1cc(C2([S@](C)(=N)=O)CC2)nc(-c2cc[nH]c3nccc2-3)n1 [ceralasertib]	4.35
CCN1CCN(Cc2ccc(Nc3ncc(F)c(-c4cc(F)c5nc(C)n(C(C)C)c5c4)n3)nc2)CC1 [abemaciclib]	3.78
NC1(C(=O)N[C@@H](CCO)c2ccc(Cl)cc2)CCN(c2nc[nH]c3nccc2-3)CC1 [capivasertib]	4.24
CC(C)n1nc(-c2ccc3oc(N)nc3c2)c2c(N)ncnc21 [sapanisertib]	4.16
O=C(c1ccc(F)c(F)c1Nc1ccc(I)cc1F)N1CC(O)([C@@H]2CCCCN2)C1 [cobimetinib]	3.83
C[C@H](NC(=O)CCC(F)(F)F)C(=O)N[C@@H]1C(=O)N(CCO)c2ncccc2-c2ccccc21 [crenigacestat]	3.89
Cc1cc(Nc2ncc(Cl)c(Nc3ccccc3S(=O)(=O)C(C)C)n2)c(OC(C)C)cc1C1CCNCC1 [ceritinib]	4.25
CS(=O)(=O)c1ccc(C(=O)Nc2ccc(Cl)c(-c3ccccn3)c2)c(Cl)c1 [vismodegib]	2.97
NC(=O)c1cccc2cn(-c3ccc([C@@H]4CCCNC4)cc3)nc12 [niraparib]	2.87

Same assay, conditions: 12.5 pM; days in culture: 191

Compound	CTG-3D luminescence at 96 h
C[C@@H]1COCCN1c1cc(C2([S@](C)(=N)=O)CC2)nc(-c2cc[nH]c3nccc2-3)n1 [ceralasertib]	2.46
CCN1CCN(Cc2ccc(Nc3ncc(F)c(-c4cc(F)c5nc(C)n(C(C)C)c5c4)n3)nc2)CC1 [abemaciclib]	2.72
NC1(C(=O)N[C@@H](CCO)c2ccc(Cl)cc2)CCN(c2nc[nH]c3nccc2-3)CC1 [capivasertib]	2.54
CC(C)n1nc(-c2ccc3oc(N)nc3c2)c2c(N)ncnc21 [sapanisertib]	2.25
O=C(c1ccc(F)c(F)c1Nc1ccc(I)cc1F)N1CC(O)([C@@H]2CCCCN2)C1 [cobimetinib]	2.68
C[C@H](NC(=O)CCC(F)(F)F)C(=O)N[C@@H]1C(=O)N(CCO)c2ncccc2-c2ccccc21 [crenigacestat]	2.59
Cc1cc(Nc2ncc(Cl)c(Nc3ccccc3S(=O)(=O)C(C)C)n2)c(OC(C)C)cc1C1CCNCC1 [ceritinib]	2.47
CS(=O)(=O)c1ccc(C(=O)Nc2ccc(Cl)c(-c3ccccn3)c2)c(Cl)c1 [vismodegib]	3.3
NC(=O)c1cccc2cn(-c3ccc([C@@H]4CCCNC4)cc3)nc12 [niraparib]	3.37

Same assay, conditions: 12.5 pM; days in culture: 209

Compound	CTG-3D luminescence at 96 h
C[C@@H]1COCCN1c1cc(C2([S@](C)(=N)=O)CC2)nc(-c2cc[nH]c3nccc2-3)n1 [ceralasertib]	2.37
CCN1CCN(Cc2ccc(Nc3ncc(F)c(-c4cc(F)c5nc(C)n(C(C)C)c5c4)n3)nc2)CC1 [abemaciclib]	2.24
NC1(C(=O)N[C@@H](CCO)c2ccc(Cl)cc2)CCN(c2nc[nH]c3nccc2-3)CC1 [capivasertib]	2.44
CC(C)n1nc(-c2ccc3oc(N)nc3c2)c2c(N)ncnc21 [sapanisertib]	2.41
O=C(c1ccc(F)c(F)c1Nc1ccc(I)cc1F)N1CC(O)([C@@H]2CCCCN2)C1 [cobimetinib]	2.44
C[C@H](NC(=O)CCC(F)(F)F)C(=O)N[C@@H]1C(=O)N(CCO)c2ncccc2-c2ccccc21 [crenigacestat]	2.47
Cc1cc(Nc2ncc(Cl)c(Nc3ccccc3S(=O)(=O)C(C)C)n2)c(OC(C)C)cc1C1CCNCC1 [ceritinib]	2.4
CS(=O)(=O)c1ccc(C(=O)Nc2ccc(Cl)c(-c3ccccn3)c2)c(Cl)c1 [vismodegib]	2.66
NC(=O)c1cccc2cn(-c3ccc([C@@H]4CCCNC4)cc3)nc12 [niraparib]	2.84

Same assay, conditions: 12.5 pM; days in culture: 227

Compound	CTG-3D luminescence at 96 h
C[C@@H]1COCCN1c1cc(C2([S@](C)(=N)=O)CC2)nc(-c2cc[nH]c3nccc2-3)n1 [ceralasertib]	6.44
CCN1CCN(Cc2ccc(Nc3ncc(F)c(-c4cc(F)c5nc(C)n(C(C)C)c5c4)n3)nc2)CC1 [abemaciclib]	5.48
NC1(C(=O)N[C@@H](CCO)c2ccc(Cl)cc2)CCN(c2nc[nH]c3nccc2-3)CC1 [capivasertib]	6.02
CC(C)n1nc(-c2ccc3oc(N)nc3c2)c2c(N)ncnc21 [sapanisertib]	5.28
O=C(c1ccc(F)c(F)c1Nc1ccc(I)cc1F)N1CC(O)([C@@H]2CCCCN2)C1 [cobimetinib]	5.23
C[C@H](NC(=O)CCC(F)(F)F)C(=O)N[C@@H]1C(=O)N(CCO)c2ncccc2-c2ccccc21 [crenigacestat]	5.37
Cc1cc(Nc2ncc(Cl)c(Nc3ccccc3S(=O)(=O)C(C)C)n2)c(OC(C)C)cc1C1CCNCC1 [ceritinib]	6.1
CS(=O)(=O)c1ccc(C(=O)Nc2ccc(Cl)c(-c3ccccn3)c2)c(Cl)c1 [vismodegib]	4.93
NC(=O)c1cccc2cn(-c3ccc([C@@H]4CCCNC4)cc3)nc12 [niraparib]	4.63

Same assay, conditions: 0.00025 µM; days in culture: 62

Compound	CTG-3D luminescence at 96 h
C[C@@H]1COCCN1c1cc(C2([S@](C)(=N)=O)CC2)nc(-c2cc[nH]c3nccc2-3)n1 [ceralasertib]	2.51
CCN1CCN(Cc2ccc(Nc3ncc(F)c(-c4cc(F)c5nc(C)n(C(C)C)c5c4)n3)nc2)CC1 [abemaciclib]	2.58
NC1(C(=O)N[C@@H](CCO)c2ccc(Cl)cc2)CCN(c2nc[nH]c3nccc2-3)CC1 [capivasertib]	2.61
CC(C)n1nc(-c2ccc3oc(N)nc3c2)c2c(N)ncnc21 [sapanisertib]	2.68
O=C(c1ccc(F)c(F)c1Nc1ccc(I)cc1F)N1CC(O)([C@@H]2CCCCN2)C1 [cobimetinib]	2.54
C[C@H](NC(=O)CCC(F)(F)F)C(=O)N[C@@H]1C(=O)N(CCO)c2ncccc2-c2ccccc21 [crenigacestat]	2.47
Cc1cc(Nc2ncc(Cl)c(Nc3ccccc3S(=O)(=O)C(C)C)n2)c(OC(C)C)cc1C1CCNCC1 [ceritinib]	2.62
CS(=O)(=O)c1ccc(C(=O)Nc2ccc(Cl)c(-c3ccccn3)c2)c(Cl)c1 [vismodegib]	2.88
NC(=O)c1cccc2cn(-c3ccc([C@@H]4CCCNC4)cc3)nc12 [niraparib]	3

Same assay, conditions: 0.00025 µM; days in culture: 82

Compound	CTG-3D luminescence at 96 h
C[C@@H]1COCCN1c1cc(C2([S@](C)(=N)=O)CC2)nc(-c2cc[nH]c3nccc2-3)n1 [ceralasertib]	2.85
CCN1CCN(Cc2ccc(Nc3ncc(F)c(-c4cc(F)c5nc(C)n(C(C)C)c5c4)n3)nc2)CC1 [abemaciclib]	2.81
NC1(C(=O)N[C@@H](CCO)c2ccc(Cl)cc2)CCN(c2nc[nH]c3nccc2-3)CC1 [capivasertib]	2.76
CC(C)n1nc(-c2ccc3oc(N)nc3c2)c2c(N)ncnc21 [sapanisertib]	3.17
O=C(c1ccc(F)c(F)c1Nc1ccc(I)cc1F)N1CC(O)([C@@H]2CCCCN2)C1 [cobimetinib]	3.07
C[C@H](NC(=O)CCC(F)(F)F)C(=O)N[C@@H]1C(=O)N(CCO)c2ncccc2-c2ccccc21 [crenigacestat]	3.18
Cc1cc(Nc2ncc(Cl)c(Nc3ccccc3S(=O)(=O)C(C)C)n2)c(OC(C)C)cc1C1CCNCC1 [ceritinib]	2.64
CS(=O)(=O)c1ccc(C(=O)Nc2ccc(Cl)c(-c3ccccn3)c2)c(Cl)c1 [vismodegib]	3.52
NC(=O)c1cccc2cn(-c3ccc([C@@H]4CCCNC4)cc3)nc12 [niraparib]	3.51

Same assay, conditions: 0.00025 µM; days in culture: 91

Compound	CTG-3D luminescence at 96 h
C[C@@H]1COCCN1c1cc(C2([S@](C)(=N)=O)CC2)nc(-c2cc[nH]c3nccc2-3)n1 [ceralasertib]	3.4
CCN1CCN(Cc2ccc(Nc3ncc(F)c(-c4cc(F)c5nc(C)n(C(C)C)c5c4)n3)nc2)CC1 [abemaciclib]	3.22
NC1(C(=O)N[C@@H](CCO)c2ccc(Cl)cc2)CCN(c2nc[nH]c3nccc2-3)CC1 [capivasertib]	3.84
CC(C)n1nc(-c2ccc3oc(N)nc3c2)c2c(N)ncnc21 [sapanisertib]	3.41
